Assay [1] deals with ROS17/2.8 cells. Description: Cell growth of ROS17/2.8 cells by BrdU uptake (Cell Proliferation Biotrak ELISA). In kind it is cell-based, rat. The conditions noted are these: for Relative index of BrdU uptake amount, Solution 3 (1α,25-dihydroxyvitamin D3 alone): 10^−4M 1α,25-dihydroxyvitamin D3 solution diluted 1000 fold, about 24 hours, Solution 1 = 1.000. As to the method: ROS17/2.8 cells were inoculated to a 96-well plate at a density of 2×10^4 cells/well. An αMEM medium to which 10% fetal calf serum had been added (referred to as the 10% FCS-αMEM, hereinafter) was used as a medium. After culture of the cells overnight, the medium was removed from each well, and an αMEM medium to which 0.5% fetal calf serum had been added (referred to as the 0.5% FCS-αMEM, hereinafter) was added. After culture of the cells for about six hours, the medium was removed from each well, and a 10% FCS-αMEM comprising DMSO and ethanol (referred to as Solution 1, hereinafter), a Compound 1 solution and ethanol (referred to as Solution 2, hereinafter), a 1α,25-dihydroxyvitamin D3 solution and DMSO (referred to as Solution 3, hereinafter) or the Compound 1 solution and the 1α,25-dihydroxyvitamin D3 solution (referred to as Solution 4, hereinafter) was added. The 10% FCS-αMEM comprising Solution 1 was prepared by diluting DMSO and ethanol by 1000 fold with the 10% FCS-αMEM. The 10% FCS-αMEM comprising Solution 2 was prepared by diluting a 10^−5M Compound 1 solution and ethanol by 1000 fold with the 10% FCS-αMEM. The 10% FCS-αMEM comprising Solution 3 was prepared by diluting a 10^−4M 1α,25-dihydroxyvitamin D3 solution and DMSO by 1000 fold with the 10% FCS-αMEM. The 10% FCS-αMEM comprising Solution 4 was prepared by diluting the 10^−5M Compound 1 solution and the 10^−4M 1α,25-dihydroxyvitamin D3 solution by 1000 fold with the 10% FCS-αMEM. After culture of the cells for about 24 hours, the effect of Compound 1 and 1α,25-dihydroxyvitamin D3 on the cell growth of the ROS17/2.8 cells was evaluated using Amersham Cell Proliferation Biotrak ELISA system, version 2 (manufactured by GE healthcare bioscience K.K., Code No. RPN250). Namely, growing cells were made take 5-bromo-2′-deoxyuridine (BrdU) into the cells, and the cells were detected by ELISA using peroxidase-labeled anti-BrdU antibodies. The amount of BrdU taken into the cells was determined by measuring absorbance (450 nm) of the solution by a microplate reader.
The BrdU uptake amount in each solution addition group was obtained in terms of a percentage to the average value of the BrdU uptake amount in four wells in a Solution 1 addition group. The graph was made using the average value±standard error of the four wells of each solution addition group.
In the Bürgi's method, the value of a standard group is […] the values of each treated group to obtain a relative index. […] If they are the same, it is determined that there is an added action. In contrast, if the value of the combination treatment group is poor, it is determined that there is an antagonistic action.
ROS17/2.8 cells were inoculated to a 96-well plate at a density of 5×10^3 cells/well. The 10% FCS-αMEM was used as a medium. After culture of the cells overnight, the medium was removed from each well, and the 0.5% FCS-αMEM was added. After culture of the cells for about six hours, the medium was removed from each well, and the 10% FCS-αMEM comprising DMSO and ethanol (referred to as Solution 1, hereinafter), a Compound 11 solution and ethanol (referred to as Solution 5, hereinafter), the 1α,25-dihydroxyvitamin D3 solution and DMSO (referred to as Solution 3, hereinafter) or the Compound 11 solution and the 1α,25-dihydroxyvitamin D3 solution (referred to as Solution 6, hereinafter) was added. The 10% FCS-αMEM comprising Solution 1 was prepared by diluting DMSO and ethanol by 1000 fold with the 10% FCS-αMEM. The 10% FCS-αMEM comprising Solution 5 was prepared by diluting a 10^−5M Compound 11 solution and ethanol by 1000 fold with the 10% FCS-αMEM. The 10% FCS-αMEM comprising Solution 3 was prepared by diluting a 10^−4M 1α,25-dihydroxyvitamin D3 solution and DMSO by 1000 fold with the 10% FCS-αMEM.
In general terms: An ELISA detects its analyte on a solid surface through an enzyme-linked reagent.

Assay [2] has as its system ROS17/2.8 cells. Kind of assay: Cell growth of ROS17/2.8 cells by the MTT method (formed formazan). Type of assay: cell-based, rat. In general terms: Tetrazolium dyes change colour on reduction, which living cells bring about.

The structures appear in SMILES notation.

For the molecule `C=C1/C(=C\C=C2/CCC[C@]3(C)[C@@H]([C@H](C)CCCC(C)(C)O)CC[C@@H]23)C[C@@H](O)C[C@@H]1O` [1α,25-dihydroxyvitamin D3, reference compound], the “Relative index of BrdU uptake amount, Solution 3 (1α,25-dihydroxyvitamin D3 alone)” value in assay [1] (Example 1, 2×10^4 cells/well) is given as 1.220; in assay [1] (Example 2, 5×10^3 cells/well) it was 1.195. Moreover, the “Cell growth of ROS17/2.8 cells compared with Solution 1 (FIG. 1)” value in assay [1] (Example 1, BrdU uptake, Dunnett multiple comparison test) is “not significantly different”. The “Cell growth of ROS17/2.8 cells compared with Solution 1 (FIG. 2)” value in assay [1] (Example 2, BrdU uptake, Dunnett multiple comparison test) is “not significantly different”. In assay [2] (amount of formed formazan, Solution 7 = 1.00), the “Relative index of Solution 9 (1α,25-dihydroxyvitamin D3 alone)” value is reported as 1.05. Also, in assay [2] (percentage to Solution 7 addition group, 2×10^−3M 1α,25-dihydroxyvitamin D3 solution diluted 10000 fold, about 48 hours, average ± standard deviation of four wells), the “Amount of formed formazan, Solution 9 (1α,25-dihydroxyvitamin D3 alone)” value worked out at 105 ± 3.1%.

For the origin of these results see patent US20110306580A1 (DONG WHA PHARMACEUTICAL CO ., LTD., priority 2009, published 2011).
